How the values were obtained:
[1] = Chemical stability assessment (RP-HPLC normalized purity); assay type: physicochemical; conditions: for Normalized purity pH 4.0 after 14 days: 1 mg/ml in 50 mM acetate buffer pH 4.0, 40° C.; for Normalized purity pH 7.5 after 14 days: 1 mg/ml in 50 mM phosphate buffer pH 7.5, 40° C.
Protocol: Samples were placed in glass vials and incubated at 40° C. The samples were analysed by reverse-phase HPLC on a C18 column with gradient elution using an acetonitrile/trifluoroacetic acid/water eluent system. The area-percentage (area-%) of the main peak after incubation time T=t (relative to time T=0) was detected by UV spectrometry at 220 nm. The purity was first determined as follows: Purity(area-%)=(area of main peak/total area of all peaks)×100. […] Normalized purity values in Table 2 were determined after 14 days of incubation.

[2] = Solubility assessment (turbidity absorbance at 325 nm); conditions: pH 7.5
How it was run: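 Peptide stock 2 mg/ml (A280-quantified) in water at pH 2.5, diluted 1:1 into 100 mM acetate pH 4.0 or 100 mM phosphate pH 7.5. Absorbance at 280 and 325 nm read at ambient temperature, single samples (n=1).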

[3] = Assessment of physical stability (Thioflavin T fibril formation lag-time); assay type: physicochemical; conditions: 1 mg/ml, 50 mM phosphate pH 7.5, 40° C., 96 hours
Protocol: A solution containing 1 mg/ml of peptide, 40 μM ThT and 50 mM phosphate buffer, pH 7.5, was loaded in a 96-well black fluorescence plate (clear bottom) in triplicate. Data were collected at fixed intervals of 10 min, each preceded by 300 s of automixing (agitation), over a period of 96 hours at 40° C. The entire experiment was repeated, but without agitation. Physical stability, expressed as lag-time of fibril formation (in hours), was defined as the intersection between two linear regressions representing the initial stable phase and the growth phase.

human Glucagon-R = target: T1, human Glucagon-R (Homo sapiens, UniProt P47871); experiment: Glucagon receptor assay (cAMP induction, AlphaScreen); assay type: cell-based; conditions: HEK293 cells expressing the human Glucagon-R, 15 min at 37° C., read-out: GCG-R EC50 in vitro
T1 construct: expressed in transfected cells
How it was run: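 Stable G418-selected clonal cells expressing the receptor were washed, then exposed to rising test peptide concentrations in IBMX-containing assay buffer for 15 min at 37° C. After lysis (≥10 min, room temperature), lysate was incubated 1 h with AlphaScreen donor/acceptor beads and cAMP content read.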

T1 sequence (P47871 26-477): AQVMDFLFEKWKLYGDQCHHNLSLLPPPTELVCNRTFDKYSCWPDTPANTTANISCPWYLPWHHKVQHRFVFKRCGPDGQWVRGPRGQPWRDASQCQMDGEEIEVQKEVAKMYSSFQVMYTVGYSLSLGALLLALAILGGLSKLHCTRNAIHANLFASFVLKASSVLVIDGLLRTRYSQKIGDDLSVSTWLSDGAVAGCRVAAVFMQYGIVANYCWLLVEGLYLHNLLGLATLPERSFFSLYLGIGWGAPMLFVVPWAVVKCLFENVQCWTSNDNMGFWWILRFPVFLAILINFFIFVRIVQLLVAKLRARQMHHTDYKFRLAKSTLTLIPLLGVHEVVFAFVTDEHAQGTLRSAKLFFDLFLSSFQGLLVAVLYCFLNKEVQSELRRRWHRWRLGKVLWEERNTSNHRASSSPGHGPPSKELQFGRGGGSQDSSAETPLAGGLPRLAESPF

Molecule | Normalized purity pH 4.0 after 14 days [1] [%] | Normalized purity pH 7.5 after 14 days [1] [%] | solubility ([2]; phosphate buffer) [µg/mL] | Physical Stability at pH 7.5 (agitated) ([3]; with agitation) | Physical Stability at pH 7.5 (non-agitated) ([3]; without agitation) | EC50 (human Glucagon-R) [nM] | solubility [2] [µg/mL]
CC(C)C[C@H](NC(=O)[C@H](Cc1c[nH]c2ccccc12)NC(=O)[C@H](CCCCN)NC(=O)[C@@H](NC(=O)[C@H](Cc1ccccc1)NC(=O)[C@H](CCC(=O)O)NC(=O)[C@H](CCC(=O)O)NC(=O)[C@H](C)NC(=O)[C@H](CCCNC(=N)N)NC(=O)[C@H](C)NC(=O)C(C)(C)NC(=O)[C@H](CC(=O)O)NC(=O)[C@H](CC(C)C)NC(=O)[C@H](Cc1ccc(O)cc1)NC(=O)[C@H](CCCCN)NC(=O)[C@H](CO)NC(=O)[C@H](Cc1ccc(O)cc1)NC(=O)[C@H](CC(=O)O)NC(=O)[C@H](CO)NC(=O)[C@@H](NC(=O)[C@H](Cc1ccccc1)NC(=O)[C@@H](NC(=O)CNC(=O)[C@H](CCC(N)=O)NC(=O)[C@H](CO)NC(=O)[C@@H](N)Cc1c[nH]cn1)[C@@H](C)O)[C@@H](C)O)C(C)C)C(=O)N[C@@H](CCC(=O)O)C(=O)N[C@@H](CO)C(=O)N[C@H](C(=O)O)[C@@H](C)O [Compound 21] | 89.8 | 93.5 | ≥ 1000 | FND | FND |  | 
H-HSQGTFTSDYSKYLDSARAEDFVKWLES-OH [Compound 13] | 84.6 | 88.8 |  |  |  | 0.07 | ≥ 1000
H-HSQGTFTSDYSKYLESARAESFVKWLEST-OH [Compound 16] | 89.1 |  |  |  |  | 0.39 | ≥ 1000
